From ChEMBL document CHEMBL5331143, “Stereochemistry-Driven Interactions of α,γ-Peptide Ligands with the Neuropeptide Y Y4-Receptor” (J Med Chem, 2023)
Starred links: 1 amine or outer side, 2 acyl side, 3 side chain; linkers in the order of their positions; H or OH if unused. Non-standard residues stand in square brackets, D forms with d. Residues, ends and D or L forms follow the SMILES beside them. X1 = O=C([C@@H]1C[C@@H](c2ccccc2)[C@@H]1CN[*:1])[*:2]; X2 = O=C([C@H]1C[C@H](c2ccccc2)[C@H]1CN[*:1])[*:2]

Columns and labels:
[1] = target: T1, Neuropeptide Y receptor type 2 (Homo sapiens, UniProt P49146); assay: Displacement of [3H]propionyl-pNPY from human Y2 receptor expressed in CHO cells measured after 90 mins by MicroBeta plate counter based competition binding assay; type: cell-based
T1 sequence (P49146 whole entry): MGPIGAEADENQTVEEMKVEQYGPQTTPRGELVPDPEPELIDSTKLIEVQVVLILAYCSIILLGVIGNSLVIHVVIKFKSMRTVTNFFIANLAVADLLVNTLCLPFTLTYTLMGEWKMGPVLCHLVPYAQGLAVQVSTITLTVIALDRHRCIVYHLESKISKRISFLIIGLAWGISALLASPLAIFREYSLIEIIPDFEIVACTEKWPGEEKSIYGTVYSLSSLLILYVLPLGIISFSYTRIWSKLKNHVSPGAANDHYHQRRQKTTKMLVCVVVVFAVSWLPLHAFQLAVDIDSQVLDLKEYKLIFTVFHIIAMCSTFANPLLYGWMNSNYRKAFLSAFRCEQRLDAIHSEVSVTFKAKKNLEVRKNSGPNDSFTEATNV

[2] = target: T2, Neuropeptide Y receptor type 4 (Homo sapiens, UniProt P50391); assay: Agonist potency at human Y4 receptor expressed in HEK293T-NlucN-mGSi/Y4R-NlucC cells by miniGsi protein recruitment assay; type: cell-based
[3] = target: T3, Neuropeptide Y receptor type 5 (Homo sapiens, UniProt Q15761); assay: Displacement of [3H]propionyl-pNPY from human Y5 receptor expressed in HEC-1B cells measured after 90 mins by MicroBeta plate counter based competition binding assay; type: cell-based, HEC-1B cell line
T3 sequence (Q15761 whole entry): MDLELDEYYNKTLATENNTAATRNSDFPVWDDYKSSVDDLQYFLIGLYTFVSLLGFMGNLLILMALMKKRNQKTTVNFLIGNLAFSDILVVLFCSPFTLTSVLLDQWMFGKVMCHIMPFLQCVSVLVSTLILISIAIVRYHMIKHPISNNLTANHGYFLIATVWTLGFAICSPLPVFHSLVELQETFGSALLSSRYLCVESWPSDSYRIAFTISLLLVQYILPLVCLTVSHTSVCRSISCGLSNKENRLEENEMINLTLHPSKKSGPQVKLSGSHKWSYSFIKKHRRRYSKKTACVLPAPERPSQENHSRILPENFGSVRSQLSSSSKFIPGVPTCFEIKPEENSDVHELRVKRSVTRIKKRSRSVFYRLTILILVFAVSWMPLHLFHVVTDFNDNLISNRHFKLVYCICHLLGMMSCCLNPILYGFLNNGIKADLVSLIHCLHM

[4] = Stability in human plasma assessed as half life time by measuring loss of intact peptide at 100 uM measured upto 24 hrs at 37 degC; type: ADME, cell-free
[5] = Stability in human plasma assessed as time constant by measuring loss of intact peptide at 100 uM measured upto 24 hrs at 37 degC; type: ADME, cell-free
[6] = Stability in human plasma assessed as rate constant by measuring loss of intact peptide at 100 uM measured upto 24 hrs at 37 degC; type: ADME, cell-free
[7] = target: T2, Neuropeptide Y receptor type 4; assay: Agonist potency at human Y4 receptor expressed in HEK293T-NlucN-mGSi/Y4R-NlucC cells assessed as intrinsic activity by miniGsi protein recruitment assay relative to hPP; type: cell-based; conditions: filed as agonist
[8] = target: T2, Neuropeptide Y receptor type 4; assay: Displacement of [3H]UR-KK200 from human Y4 receptor expressed in CHO-Gqi5-mtAQE cells measured after 90 mins by MicroBeta plate counter based competition binding assay; type: cell-based
[9] = Stability in human plasma assessed as intact remained level in presence of ramipril ACE inhibitor measured over 4 hrs at 37 degC; type: ADME, cell-free

T2 sequence (P50391 whole entry): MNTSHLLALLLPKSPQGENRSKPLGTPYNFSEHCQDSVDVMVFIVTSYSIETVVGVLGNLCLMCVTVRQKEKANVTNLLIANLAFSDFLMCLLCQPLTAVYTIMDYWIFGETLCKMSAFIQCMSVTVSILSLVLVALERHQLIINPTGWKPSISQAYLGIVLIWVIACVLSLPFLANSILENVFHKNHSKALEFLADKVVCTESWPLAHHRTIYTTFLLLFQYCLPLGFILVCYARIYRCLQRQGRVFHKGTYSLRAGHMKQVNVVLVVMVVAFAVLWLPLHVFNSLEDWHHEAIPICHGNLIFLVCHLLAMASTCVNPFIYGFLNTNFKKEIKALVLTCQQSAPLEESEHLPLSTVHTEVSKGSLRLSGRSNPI

Row | Ki ([1]; read-out: Ki) | Ki ([1]; read-out: pKi (converted)) | EC50 ([2]; read-out: EC50) | Ki ([3]; read-out: Ki) | Ki ([3]; read-out: pKi (converted)) | half-life at 100 µM [4] | K [5] | half-life at 100 µM [6] | Intrinsic activity [7] | Ki ([1]; cho, read-out: Ki) | Ki ([8]; read-out: Ki) | Ki ([8]; read-out: pKi (converted)) | EC50 ([2]; read-out: pEC50 (converted)) | Stability [9] | EC50 ([2]; hek293t, read-out: EC50) | Ki ([3]; hec-1b cell line, read-out: Ki) | Compound
1 | > 5000 nM | > 5010 nM | 110 nM | > 5000 nM | > 5010 nM | 2 h | 0.5 h⁻¹ | 1.4 h | 0.58 | – | – | – | – | – | – | – | CC(=O)N[C@@H](CCCNC(=N)N)C(=O)N[C@@H](Cc1ccc(O)cc1)C(=O)N[C@@H](CCCNC(=N)N)C(=O)N[C@@H](CC(C)C)C(=O)N[C@@H](CCCNC(=N)N)C(=O)N[C@@H](Cc1ccc(O)cc1)C(N)=O
2 | – | > 1000 nM | 20 nM | > 3000 nM | > 3160 nM | 0.55 h | 1.83 h⁻¹ | 0.4 h | 0.5 | > 1000 nM | 0.66 nM | 0.646 nM | 18.6 nM | Stable | – | – | CC(=O)N[C@@H](CCCNC(=N)N)C(=O)NC[C@@H]1[C@H](C(=O)N[C@@H](CCCNC(=N)N)C(=O)N[C@@H](CC(C)C)C(=O)N[C@@H](CCCNC(=N)N)C(=O)N[C@@H](Cc2ccc(O)cc2)C(N)=O)C[C@H]1c1ccccc1 (Ac-R[X1]RLRY-NH2)
3 | – | – | – | – | – | – | – | – | 68% | – | – | – | – | – | 1.7 nM | – | CC(C)C[C@H](NC(=O)[C@@H]1CCCNC(=N)NC(=O)NCCCCNC(=O)CCC(=O)N[C@@H](CCCNC(=N)N)C(=O)N[C@@H](Cc2ccc(O)cc2)C(=O)N1)C(=O)N[C@@H](CCCNC(=N)N)C(=O)N[C@@H](Cc1ccc(O)cc1)C(N)=O
4 | > 3000 nM | > 3160 nM | – | – | > 1000 nM | – | – | – | – | – | 910 nM | 891 nM | – | – | – | > 1000 nM | CC(=O)N[C@@H](CCCNC(=N)N)C(=O)NC[C@H]1[C@@H](C(=O)N[C@@H](CCCNC(=N)N)C(=O)NC[C@H]2[C@@H](C(=O)N[C@@H](CCCNC(=N)N)C(=O)N[C@@H](Cc3ccc(O)cc3)C(N)=O)C[C@@H]2c2ccccc2)C[C@@H]1c1ccccc1 (Ac-R[X2]R[X2]RY-NH2)
5 | > 3000 nM | > 3160 nM | 610 nM | > 3000 nM | > 3160 nM | 3.2 h | 0.31 h⁻¹ | 2.2 h | 0.39 | – | 12 nM | – | 468 nM | Stable | – | – | CC(=O)N[C@@H](CCCNC(=N)N)C(=O)NC[C@H]1[C@@H](C(=O)N[C@@H](CCCNC(=N)N)C(=O)N[C@@H](CC(C)C)C(=O)N[C@@H](CCCNC(=N)N)C(=O)N[C@@H](Cc2ccc(O)cc2)C(N)=O)C[C@@H]1c1ccccc1 (Ac-R[X2]RLRY-NH2)
6 | – | – | – | – | – | – | – | – | 80% | – | – | – | – | – | – | – | CC(C)C[C@H](NC(=O)[C@@H]1CCCNC(=N)NC(=O)NCCCCNC(=O)CCC(=O)N[C@@H](CCCNC(=N)N)C(=O)N[C@@H](Cc2c[nH]c3ccccc23)C(=O)N1)C(=O)N[C@@H](CCCNC(=N)N)C(=O)N[C@@H](Cc1ccc(O)cc1)C(N)=O
7 | > 3000 nM | > 3160 nM | – | – | > 1000 nM | – | – | – | – | – | 340 nM | 331 nM | – | – | – | > 1000 nM | CC(=O)N[C@@H](CCCNC(=N)N)C(=O)NC[C@@H]1[C@H](C(=O)N[C@@H](CCCNC(=N)N)C(=O)NC[C@@H]2[C@H](C(=O)N[C@@H](CCCNC(=N)N)C(=O)N[C@@H](Cc3ccc(O)cc3)C(N)=O)C[C@H]2c2ccccc2)C[C@H]1c1ccccc1 (Ac-R[X1]R[X1]RY-NH2)
8 | – | – | – | – | – | – | – | – | 54% | – | – | – | – | – | – | – | CC(C)C[C@H](NC(=O)[C@@H](N)CCCNC(=N)N)C(=O)N[C@@H](CCCNC(=N)N)C(=O)N[C@@H](Cc1ccc(O)cc1)C(N)=O
